Measured values published in BindingDB's records for doi:10.7270/Q2V986FT (Emory University, 2007).

What follows are molecules tested against T1, 14-3-3 protein gamma (Homo sapiens, UniProt P61981) (assay: modulators of 14-3-3 gamma client binding – dose response (AID 711)).
T1 sequence (P61981 whole entry): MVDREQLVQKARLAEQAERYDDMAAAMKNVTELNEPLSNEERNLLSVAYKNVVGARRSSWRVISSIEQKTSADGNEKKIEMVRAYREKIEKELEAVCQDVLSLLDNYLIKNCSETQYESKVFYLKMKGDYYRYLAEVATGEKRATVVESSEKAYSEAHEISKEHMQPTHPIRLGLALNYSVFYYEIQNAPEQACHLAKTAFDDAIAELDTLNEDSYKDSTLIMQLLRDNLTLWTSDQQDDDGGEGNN
In the case of `CC(N=O)C(=O)NCc1ccccn1` (stereo not drawn) [(2E)-2-(hydroxyimino)-N-(pyridin-2-ylmethyl)propanamide], the IC50 is reported as over 50 µM. For `Cc1ccc(C2C3CN(C(C)C)CCC3=C(C#N)C(=N)C2(C#N)C#N)cc1` (stereo not drawn) [SMR000034220], the IC50 was over 50 µM. Molecule `CC1=NC(c2ccccc2)C(C#N)(C#N)C(C#N)(C#N)C1` (stereo not drawn) [SMR000037705] has an IC50 of 3.15 µM.
